Measured values reported in US20060069132A1, “Azolecarboxamide herbicides” (priority 2004, published 2006).

Tests used:
[1] = tested on: yellow nutsedge; test: Test C pre-/postemergence herbicide test; type: in vivo, Cyperus esculentus; conditions: for Nutsedge, Yellow plant response rating: 500 g ai/ha
Outline: (§1)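 Greenhouse-grown plants were evaluated visually 12 to 14 days after treatment, with 100 meaning complete control and 0 no effect. Application was preemergence, or postemergence at 2 to 18 cm.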

[2] = tested on: bermudagrass; test: Test C pre-/postemergence herbicide test; type: in vivo, Cynodon dactylon
Outline: as §1

[3] = tested on: morningglory; test: Test A pre-/postemergence herbicide test; type: in vivo, Ipomoea spp.
Outline: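 Plants are held in greenhouse about ten days after treatment, then compared with untreated controls and scored 0 (no effect) to 100 (complete control). Preemergence dosing is a directed soil spray on sown sandy loam; postemergence dosing is spray to runoff at 2–10 cm height.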

[4] = tested on: woolly cupgrass; test: Test C pre-/postemergence herbicide test; type: in vivo, Eriochloa villosa; conditions: for Cupgrass, Woolly plant response rating: 500 g ai/ha
Outline: as §1

[5] = tested on: velvetleaf; test: Test C pre-/postemergence herbicide test; type: in vivo, Abutilon theophrasti; conditions: for Velvetleaf plant response rating: 500 g ai/ha
Outline: as §1

[6] = tested on: giant foxtail; test: Test C pre-/postemergence herbicide test; type: in vivo, Setaria faberi; conditions: for Foxtail, Giant plant response rating: 500 g ai/ha
Outline: as §1

[7] = tested on: barnyardgrass; test: Test C flooded paddy test; type: in vivo, Echinochloa crus-galli; conditions: for Plant response rating, Barnyardgrass: visual rating after 12 to 14 days
Outline: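 Weeds and wheat were sprayed after emergence, at a height of 2 to 18 cm (1–4 leaves), and paddy barnyardgrass was flooded and treated at two leaves. Assessment took place 12–14 days later in the greenhouse on a 0-to-100 visual control scale. A dash means no result was obtained.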

[8] = tested on: common (oilseed) sunflower; test: Test C pre-/postemergence herbicide test; type: in vivo, Helianthus annuus; conditions: for Plant response rating (0 = no effect, 100 = complete control), Sunflower: 62 g ai/ha; for Plant response rating (0 = no effect, 100 = complete control), Sunflower / Plant response rating, Sunflower: preemergence
Outline: as §1

[9] = 250 g ai/ha, scale 0 to 100 (0 no effect, 100 complete control), visual, 12 to 14 days, preemergence
[10] = Postemergence, 250 g ai/ha, scale 0 to 100, 0 no effect, 100 complete control
[11] = Preemergence, scale 0 to 100, 0 no effect, 100 complete control
[12] = postemergence, 125 g ai/ha, scale 0 to 100
[13] = postemergence, 62 g ai/ha, scale 0 to 100
[14] = 125 g ai/ha, scale 0-100, preemergence
[15] = Postemergence, 125 g ai/ha, scale 0 to 100, 0 no effect, 100 complete control
[16] = Preemergence, 500 g ai/ha, scale 0 to 100, 0 no effect, 100 complete control
[17] = Postemergence, 500 g ai/ha, 0 to 100 scale, 0 no effect, 100 complete control
[18] = Postemergence, 2000 g ai/ha, 0 to 100 scale, 0 no effect, 100 complete control
[19] = Preemergence, 500 g ai/ha, visual rating, 0 to 100 scale (0 no effect, 100 complete control)
[20] = Preemergence, 2000 g ai/ha, 0 to 100 scale, 0 no effect, 100 complete control
[21] = 62 g ai/ha, scale 0 to 100 (0 no effect, 100 complete control)
[22] = 125 g ai/ha, scale of 0 to 100, 0 is no effect, 100 is complete control
[23] = 500 g ai/ha, scale 0 to 100 (0 no effect, 100 complete control)
[24] = 31 g ai/ha, preemergence, scale 0 to 100
[25] = 125 g ai/ha, scale 0 (no effect) to 100 (complete control), visual, 12 to 14 days, preemergence

In the case of `C=Cn1nc(C(C)(C)C)cc1C(=O)Nc1cccc(C(=O)N(CC)CC)c1` [Compound 34], the “Plant response rating (0 = no effect, 100 = complete control), Nutsedge, Yellow” value ([1]; 62 g ai/ha, preemergence) is reported as 0, the “Plant response rating, Nutsedge, Yellow” value [1, 9] is reported as 0 and the “Nutsedge, Yellow plant response rating” value ([1]; Postemergence, scale 0 to 100) is reported as 20. For the same compound, the “Plant response rating, Nutsedge, Yellow” value [1, 10] was 0, the “Nutsedge, Yellow plant response rating” value [1, 11] was 0 and the “Plant response rating, Nutsedge, Yellow” value [1, 12] was 0. For the same compound, the “Plant response rating, Nutsedge, Yellow” value [1, 13] was 0, the “Plant response rating (0 = no effect, 100 = complete control), Bermudagrass” value ([2]; 62 g ai/ha, preemergence) was 20 and the “Plant response rating, Bermudagrass” value [2, 14] was 50. For the same compound, the “Plant response rating, Bermudagrass” value [2, 9] was 90, the “Bermudagrass plant response rating” value ([2]; Postemergence, 500 g ai/ha, scale 0 to 100) was 50 and the “Plant response rating, Bermudagrass” value [2, 15] was 40. For the same compound, the “Bermudagrass plant response rating” value ([2]; Postemergence, 250 g ai/ha, scale 0 to 100) was 50, the “Bermudagrass plant response rating” value [2, 16] was 100 and the “Plant response rating, Bermudagrass” value [2, 13] was 10. For the same compound, the “Plant response rating, Morningglory” value [3, 17] was 10, the “Plant response rating, Morningglory” value [3, 18] was 20 and the “Morningglory plant response rating” value [3, 19] was 35. For the same compound, the “Morningglory plant response rating” value [3, 20] was 50, the “Plant response rating (0 = no effect, 100 = complete control), Cupgrass, Woolly” value ([4]; 62 g ai/ha, preemergence) was 10 and the “Plant response rating, Cupgrass, Woolly” value [4, 14] was 20. For the same compound, the “Plant response rating, Cupgrass, Woolly” value [4, 9] was 70, the “Cupgrass, Woolly plant response rating” value ([4]; Postemergence, scale 0 to 100) was 90 and the “Plant response rating, Cupgrass, Woolly” value [4, 15] was 60. The “Plant response rating, Cupgrass, Woolly” value [4, 10] was 80, the “Cupgrass, Woolly plant response rating” value [4, 11] was 70 and the “Plant response rating, Cupgrass, Woolly” value [4, 13] was 40. For the same compound, the “Plant response rating (0 = no effect, 100 = complete control), Velvetleaf” value ([5]; 62 g ai/ha, preemergence) was 0, the “Plant response rating, Velvetleaf” value [5, 9] was 90 and the “Velvetleaf plant response rating” value ([5]; Postemergence, scale 0 to 100) was 70. For the same compound, the “Plant response rating, Velvetleaf” value [5, 10] was 70, the “Velvetleaf plant response rating” value [5, 11] was 100 and the “Plant response rating, Velvetleaf” value [5, 12] was 70. For the same compound, the “Plant response rating, Velvetleaf” value [5, 13] was 20, the “Plant response rating (0 = no effect, 100 = complete control), Foxtail, Giant” value ([6]; 62 g ai/ha, preemergence) was 10 and the “Plant response rating, Foxtail, Giant” value [6, 14] was 70. The “Plant response rating, Foxtail, Giant” value [6, 9] was 90, the “Foxtail, Giant plant response rating” value ([6]; Postemergence, scale 0 to 100) was 40 and the “Plant response rating, Foxtail, Giant” value [6, 15] was 40. For the same compound, the “Plant response rating, Foxtail, Giant” value [6, 10] was 40, the “Foxtail, Giant plant response rating” value [6, 11] was 100 and the “Plant response rating, Foxtail, Giant” value [6, 13] was 20. For the same compound, the “Barnyardgrass plant response rating” value [7, 21] was 0, the “Barnyardgrass plant response rating” value [7, 22] was 35 and the “Plant response rating, Barnyardgrass” value ([7]; 250 g ai/ha, scale 0 to 100 (0 no effect, 100 complete control)) was 45. The “Plant response rating, Barnyardgrass” value [7, 23] was 65, the “Plant response rating (0 = no effect, 100 = complete control), Sunflower” value [8] was 0 and the “Plant response rating, Sunflower” value ([8]; 250 g ai/ha, scale 0 to 100 (0 no effect, 100 complete control), visual, 12 to 14 days) was 0. The “Sunflower plant response rating” value [8, 16] was 0.

With `CCOC(=O)c1cc(NC(=O)c2cc(C(C)(C)C)nn2CC)ccc1OCC` [Compound 95] the “Plant response rating, Nutsedge, Yellow” value [1, 24] was 0, the “Plant response rating (0 = no effect, 100 = complete control), Nutsedge, Yellow” value ([1]; 62 g ai/ha, preemergence) was 0 and the “Plant response rating, Nutsedge, Yellow” value [1, 25] was 0. The “Plant response rating, Bermudagrass” value [2, 24] was 10, the “Plant response rating (0 = no effect, 100 = complete control), Bermudagrass” value ([2]; 62 g ai/ha, preemergence) was 70 and the “Plant response rating, Bermudagrass” value [2, 25] was 100. The “Plant response rating, Bermudagrass” value [2, 9] was 100, the “Morningglory plant response rating” value [3, 17] was 10 and the “Plant response rating, Morningglory” value [3, 18] was 15. For the same compound, the “Morningglory plant response rating” value [3, 19] was 30, the “Morningglory plant response rating” value [3, 20] was 55 and the “Plant response rating, Cupgrass, Woolly” value [4, 24] was 0. The “Plant response rating (0 = no effect, 100 = complete control), Cupgrass, Woolly” value ([4]; 62 g ai/ha, preemergence) was 5, the “Plant response rating, Cupgrass, Woolly” value [4, 25] was 10 and the “Plant response rating, Cupgrass, Woolly” value [4, 9] was 30. For the same compound, the “Plant response rating, Velvetleaf” value [5, 24] was 0, the “Plant response rating, Velvetleaf” value [5, 25] was 60 and the “Plant response rating, Foxtail, Giant” value [6, 24] was 0. For the same compound, the “Plant response rating (0 = no effect, 100 = complete control), Foxtail, Giant” value ([6]; 62 g ai/ha, preemergence) was 60, the “Plant response rating, Foxtail, Giant” value [6, 25] was 100 and the “Plant response rating, Foxtail, Giant” value [6, 9] was 100. The “Barnyardgrass plant response rating” value [7, 21] was 20, the “Barnyardgrass plant response rating” value [7, 22] was 45 and the “Barnyardgrass plant response rating” value ([7]; 250 g ai/ha, scale of 0 to 100, 0 is no effect, 100 is complete control) was 55. For the same compound, the “Plant response rating, Barnyardgrass” value [7, 23] was 60, the “Plant response rating, Sunflower” value ([8]; 31 g ai/ha, scale 0 to 100) was 0 and the “Plant response rating (0 = no effect, 100 = complete control), Sunflower” value [8] was 0. The “Plant response rating, Sunflower” value ([8]; 125 g ai/ha, scale 0 (no effect) to 100 (complete control), visual, 12 to 14 days) was 0.
